Assay [1] has as its system Phakopsora pachyrhizi. Description: Fungicidal activity against Phakopsora pachyrhizi / soybean / leaf disc preventative (Asian soybean rust). The conditions noted are these: foliar, 200 ppm in the applied formulation, soybean leaf disks, preventative (inoculated one day after application), assessed 12 to 14 days after application, read-out: disease control compared to untreated control leaf disks. The assay is classed as in vivo. The essentials:
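Soybean leaf discs on water agar sprayed with formulated compound diluted in water; spore suspension sprayed on lower leaf surface one day later. Incubated 24-36 h dark at 20° C, 75% rh, then 20° C, 12 h light/day, 75% rh. Percent disease control versus untreated scored 12 to 14 days after application.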

For assay [2], the system named is Uromyces viciae-fabae. Kind of assay: Fungicidal activity against Uromyces viciae-fabae / field bean / leaf disc preventative (faba-bean rust). The following applies: foliar, 288 h, 100 ppm in the applied formulation, field bean leaf discs, preventative (inoculated two hours after application), assessed 12 days after application, read-out: disease control compared to untreated control leaf discs. In kind it is in vivo. The protocol: Leaf disks or leaf segments of various plant species are cut from plants grown in a greenhouse. The cut leaf disks or segments are placed in multiwell plates (24-well format) onto water agar. The leaf disks are sprayed with a test solution before (preventative) or after (curative) inoculation. Compounds to be tested are prepared as DMSO solutions (max. 10 mg/ml) which are diluted to the appropriate concentration with 0.025% Tween20 just before spraying. The inoculated leaf disks or segments are incubated under defined conditions (temperature, relative humidity, light, etc.) according to the respective test system. A single evaluation of disease level is carried out 3 to 14 days after inoculation, depending on the pathosystem. Percent disease control relative to the untreated check leaf disks or segments is then calculated. General Examples of Liquid Culture Tests in Well Plates:
Example 5: Fungicidal Activity Against Uromyces viciae-fabae/Field Bean/Leaf Disc Preventative (Faba-Bean Rust)
Field bean leaf discs are placed on water agar in multiwell plates (96-well format) and 10 μl of the formulated test compound diluted in acetone and a spreader pipetted onto the leaf disc. Two hours after application leaf discs are inoculated by spraying a spore suspension on the lower leaf surface. The leaf discs are incubated in a climate cabinet at 22° C. with 18 hour day and 70% relative humidity. The activity of a compound is assessed as percent disease control compared to untreated when an appropriate level of disease damage appears in untreated check leaf disks (12 days after application).
The following compounds at 100 ppm in the applied formulation give at least 80% disease control in this test when compared to untreated control leaf discs under the same conditions, which show extensive disease development.

As to `C[C@@H](NC(=O)c1ccc(-c2noc(C(F)(F)F)n2)cc1)C1CCCCC1` [Compound 2a.8, N-[(1R)-1-cyclohexylethyl]-4-[5-(trifluoromethyl)-1,2,4-oxadiazol-3-yl]benzamide], in assay [1], the pest or weed control at 200 ppm is at least 80%. Moreover, the pest or weed control at 100 ppm in assay [2] was at least 80%.

With `O=C(NC1CC1c1ccccc1)c1ccc(-c2noc(C(F)(F)F)n2)cc1F` (stereo not drawn) [Compound 2b.7, 2-fluoro-N-(2-phenylcyclopropyl)-4-[5-(trifluoromethyl)-1,2,4-oxadiazol-3-yl]benzamide], the pest or weed control at 200 ppm in assay [1] was at least 80%. Besides, the pest or weed control at 100 ppm in assay [2] is at least 80%.

Consider `O=C(Nc1ccc(Cl)cc1)c1ccc(-c2noc(C(F)(F)F)n2)cc1` [Compound 4a.6, N-(4-chlorophenyl)-4-[5-(trifluoromethyl)-1,2,4-oxadiazol-3-yl]benzamide], for which the pest or weed control at 200 ppm in assay [1] was at least 80%. In assay [2], the pest or weed control at 100 ppm is at least 80%.

Take `O=C(Nc1ccccc1F)c1ccc(-c2noc(C(F)(F)F)n2)cc1` [Compound 4a.7, N-(2-fluorophenyl)-4-[5-(trifluoromethyl)-1,2,4-oxadiazol-3-yl]benzamide]: in assay [1], the pest or weed control at 200 ppm was at least 80%. Besides, the pest or weed control at 100 ppm in assay [2] was at least 80%.

Turning to `O=C(Nc1ccc(F)cc1)c1ccc(-c2noc(C(F)(F)F)n2)cc1` [Compound 4a.8, N-(4-fluorophenyl)-4-[5-(trifluoromethyl)-1,2,4-oxadiazol-3-yl]benzamide], the pest or weed control at 200 ppm in assay [1] was at least 80%. Further, in assay [2], the pest or weed control at 100 ppm was at least 80%.

As for `O=C(Nc1cccc(C(F)(F)F)c1)c1ccc(-c2noc(C(F)(F)F)n2)cc1` [Compound 4a.9, 4-[5-(trifluoromethyl)-1,2,4-oxadiazol-3-yl]-N-[3-(trifluoromethyl)phenyl]benzamide], the pest or weed control at 200 ppm in assay [1] was at least 80%. Also, the pest or weed control at 100 ppm in assay [2] was at least 80%.

For the compound `CCc1cccc(NC(=O)c2ccc(-c3noc(C(F)(F)F)n3)cc2)c1` [Compound 4a.10, N-(3-ethylphenyl)-4-[5-(trifluoromethyl)-1,2,4-oxadiazol-3-yl]benzamide], in assay [1], the pest or weed control at 200 ppm was at least 80%. For the same compound, the pest or weed control at 100 ppm in assay [2] is at least 80%.

Take `Cc1ccc(C)c(CNC(=O)c2ccc(-c3noc(C(F)(F)F)n3)cc2)c1` [Compound 4a.11, N-[(2,5-dimethylphenyl)methyl]-4-[5-(trifluoromethyl)-1,2,4-oxadiazol-3-yl]benzamide]: the pest or weed control at 200 ppm in assay [1] is at least 80%. Further, the pest or weed control at 100 ppm in assay [2] is at least 80%.

On to `O=C(Nc1ccc(N2CCOCC2)cc1)c1ccc(-c2noc(C(F)(F)F)n2)cc1` [Compound 4a.12, N-(4-morpholinophenyl)-4-[5-(trifluoromethyl)-1,2,4-oxadiazol-3-yl]benzamide], for which the pest or weed control at 200 ppm in assay [1] is at least 80%. For the same compound, the pest or weed control at 100 ppm in assay [2] is at least 80%.

Turning to `O=C(Nc1ccccc1)c1ccc(-c2noc(C(F)(F)F)n2)cc1F` [Compound 4b.12, 2-fluoro-N-phenyl-4-[5-(trifluoromethyl)-1,2,4-oxadiazol-3-yl]benzamide], in assay [1], the pest or weed control at 200 ppm was at least 80%. For the same compound, in assay [2], the pest or weed control at 100 ppm was at least 80%.

For `CC(C)(C)c1cc(NC(=O)c2ccc(-c3noc(C(F)(F)F)n3)cc2)[nH]n1` [Compound 5a.2, N-(3-tert-butyl-1H-pyrazol-5-yl)-4-[5-(trifluoromethyl)-1,2,4-oxadiazol-3-yl]benzamide], the pest or weed control at 200 ppm in assay [1] was at least 80%. Also, the pest or weed control at 100 ppm in assay [2] is at least 80%.

With `CC(C)(C)c1cc(NC(=O)c2ccc(-c3noc(C(F)(F)F)n3)cc2F)[nH]n1` [Compound 5b.6, N-(3-tert-butyl-1H-pyrazol-5-yl)-2-fluoro-4-[5-(trifluoromethyl)-1,2,4-oxadiazol-3-yl]benzamide], the pest or weed control at 200 ppm in assay [1] is at least 80%. Also, in assay [2], the pest or weed control at 100 ppm was at least 80%.

Values taken from patent US10959432B2, “Microbiocidal oxadiazole derivatives” (Syngenta Participations AG, priority 2016, dated 2021).
